In patent US8685924B2, “Preventives/remedies for stress urinary incontinence and method of screening the same” (Takeda Pharmaceutical Company Limited, priority 2004, dated 2014):

Assays:
Format in all cases: in vivo, rat
[1] = system: urethane-anesthetized female rats; experiment: Leak point pressure by direct compressing of the bladder (Example 4); conditions: for leak point pressure after drug administration / leak point pressure increase / leak point pressure before drug administration: i.v., mean ± SEM; for leak point pressure after drug administration: 20 min later; for leak point pressure before drug administration: baseline; for effect on leak point pressure: intravenous administration
How it was run: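 Spinal-cord-transected (T8-9), urethane-anesthetized SD female rats (180-350 g); bladder filled with 0.1% Evans blue (0.4 mL) and compressed bilaterally until leakage, intravesical pressure at leakage taken as leak point pressure. Drugs given i.v., re-measured 20 min later; for antagonism, RS-102221 or SB221284 given i.v. 5 min before WAY-161503/WAY-163909, reading 10 min after agonist.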

[2] = system: urethane-anesthetized female rats; experiment: Leak point pressure by intravesical pressure-clamp method (Example 6); conditions: for leak point pressure after drug administration / leak point pressure before drug administration: i.v., mean ± SEM; for leak point pressure after drug administration: 10 min later; for leak point pressure before drug administration: baseline; for effect on leak point pressure: intravesical pressure-clamp method
Description: (§1) SD female rats (body weight 180-350 g) were anesthetized with urethane (Wako Pure Chemical Industries, Ltd.), and the spinal cord was transected at T8-9 level to eliminate the reflex voiding.
Halothane (Takeda Pharmaceutical Company Limited) anesthesia was added when necessary during operation. After laparotomy, the bladder neck was tied with a suture thread and then a catheter (PE-90, Clay Adams) was inserted into the bladder and secured with a ligature. The other end of the bladder catheter was connected to a pressure transducer and saline storage reservoir (60 ml syringe) via a three-way cock.
Changes in the intravesical pressure measured by a transducer were input in a computer via an amplifier (blood pressure amplification unit AP-641G; NIHON KODEN) and an analog-to-digital cinverter (MP-100; biopack) and recorded on a hard disc. The intravesical pressure was raised for 90 sec by setting the saline storage reservoir at a given height, and the presence or absence of saline leakage from the urethral orifice was observed. The intravesical pressure was raised every 2.5 cmH2O and, after 90 sec observation period, the intravesical pressure was once returned to 0 cmH2O, after which the next step was performed. The intravesical pressure at which the saline leakage from the urethral orifice was observed was taken as the leak point pressure. The measurement of the leak point pressure was repeated and the average of the final three measures was taken as the value before the drug administration. The drug was intravenously administered, and the leak point pressure was measured again 10 min later. The drug was dissolved in DMA-PEG400 (1:1), and administered at 0.5 ml/kg.

[3] = system: urethane-anesthetized female rats; experiment: Urethral contractile responses induced by intravesical pressure increase (Example 5); conditions: for urethral contractile responses before administration: baseline; for urethral contractile responses before administration / urethral contractile responses after administration: mean ± SEM of 5 cases; for urethral contractile responses after administration: 5 min later; for effect on urethral contractile responses during elevation of intravesical pressure: intravenous, duloxetine 10 mg/kg, WAY161503 0.3 mg/kg
Description: as §1
Halothane (Takeda Pharmaceutical Company Limited) anesthesia was added when necessary during operation. After laparotomy, the bladder neck was tied with a suture thread and then a catheter (PE-90, Clay Adams) was inserted into the bladder and secured with a ligature. The other end of the bladder catheter was connected to a pressure transducer and saline storage reservoir (60 ml syringe) via a three-way stopcock. A microchip-transducer-catheter (SPR-524, Millar Instruments Inc.) was inserted from the meatus urethra. toward the bladder. Using the scale written on the catheter surface, the transducer part was set in the urethra at 12.5-15.0 mm from the urethral orifice with its side-mounted sensor facing the inner urethral surface in the 3 o'clock position.
Topical pressure changes in the urethra (hereinafter to be conveniently indicated as intraurethral pressure) measured by a microchip-transducer were input in a computer via an amplifier (blood pressure amplification unit AP-641G; NIHON KODEN) and an analog-to-digital converter (MP-100; biopack; sampled at 500 Hz) and recorded on a hard disc. […] The response of the urethra induced by the intravesical pressure increase was measured 3 times and the average of the final two measures was taken as the value before the drug administration.
The evaluation parameters were a resting intraurethral pressure and a reflex urethral contractile responses. An average intraurethral pressure per 1 sec was calculated, and the value immediately before intravesical pressure increase was taken as the resting intraurethral pressure, and the value obtained by subtracting the resting intraurethral pressure from the maximum value during intravesical pressure increase was taken as the urethral responses. After measurement of the response before drug administration, WAY-161503 (0.3 mg/kg), which is a serotonin 5-HT2C receptor agonist, or duloxetine (10 mg/kg) was intravenously administered, the intravesical pressure was increased again 5 min later, and the responses of the urethra were measured. The both drugs were dissolved in DMA-PEG400 (1:1), and administered at 0.5 ml/kg.

O=C1Nc2cc(Cl)c(Cl)cc2N2CCNCC12 (stereo not drawn) [WAY-161503]
leak point pressure after drug administration ([1]; 0.03 mg/kg): 62.0 ± 5.8 cmH2O
leak point pressure increase ([1]; 0.03 mg/kg): 7.1 ± 2.4 cmH2O
leak point pressure after drug administration ([1]; 0.1 mg/kg): 66.1 ± 2.8 cmH2O
leak point pressure increase ([1]; 0.1 mg/kg): 11.5 ± 1.8 cmH2O
leak point pressure after drug administration ([1]; 0.3 mg/kg): 77.7 ± 3.6 cmH2O
leak point pressure increase ([1]; 0.3 mg/kg): 22.0 ± 3.4 cmH2O
leak point pressure before drug administration ([1]; dose group 0.03 mg/kg): 54.9 ± 6.1 cmH2O
leak point pressure before drug administration ([1]; dose group 0.1 mg/kg): 54.7 ± 2.5 cmH2O
leak point pressure before drug administration ([1]; dose group 0.3 mg/kg): 55.7 ± 3.8 cmH2O
effect on leak point pressure [1]: dose-dependently increased the leak point pressure
leak point pressure after drug administration ([2]; 0.01 mg/kg): 37.3 ± 3.5 cmH2O
leak point pressure after drug administration ([2]; 0.03 mg/kg): 41.2 ± 3.0 cmH2O
leak point pressure after drug administration ([2]; 1 mg/kg): 43.6 ± 3.2 cmH2O
leak point pressure before drug administration ([2]; dose group 0.01 mg/kg): 33.4 ± 3.4 cmH2O
leak point pressure before drug administration ([2]; dose group 0.03 mg/kg): 34.8 ± 3.2 cmH2O
leak point pressure before drug administration ([2]; dose group 1 mg/kg): 34.8 ± 3.0 cmH2O
effect on leak point pressure [2]: increased the leak point pressure
urethral contractile responses before administration ([3]; increase in intravesical pressure to 25 cmH2O, dose group 0.3 mg/kg i.v.): 7.0 ± 1.4 cmH2O
urethral contractile responses before administration ([3]; increase in intravesical pressure to 50 cmH2O, dose group 0.3 mg/kg i.v.): 12.8 ± 2.4 cmH2O
urethral contractile responses after administration ([3]; increase in intravesical pressure to 25 cmH2O, 0.3 mg/kg i.v.): 11.3 ± 1.8 cmH2O
urethral contractile responses after administration ([3]; increase in intravesical pressure to 50 cmH2O, 0.3 mg/kg i.v.): 19.2 ± 3.4 cmH2O
effect on urethral contractile responses during elevation of intravesical pressure [3]: significant increase in the urethral contractile responses

CNCC[C@H](Oc1cccc2ccccc12)c1cccs1 [duloxetine]
leak point pressure after drug administration ([1]; 0.01 mg/kg): 60.5 ± 5.1 cmH2O
leak point pressure increase ([1]; 0.01 mg/kg): 2.4 ± 2.6 cmH2O
leak point pressure after drug administration ([1]; 0.03 mg/kg): 67.8 ± 2.9 cmH2O
leak point pressure increase ([1]; 0.03 mg/kg): 6.5 ± 1.6 cmH2O
leak point pressure after drug administration ([1]; 0.1 mg/kg): 72.6 ± 3.4 cmH2O
leak point pressure increase ([1]; 0.1 mg/kg): 9.3 ± 1.2 cmH2O
leak point pressure after drug administration ([1]; 0.3 mg/kg): 73.3 ± 3.9 cmH2O
leak point pressure increase ([1]; 0.3 mg/kg): 8.8 ± 2.1 cmH2O
leak point pressure after drug administration ([1]; 1 mg/kg): 75.0 ± 4.0 cmH2O
leak point pressure increase ([1]; 1 mg/kg): 13.9 ± 1.8 cmH2O
leak point pressure before drug administration ([1]; dose group 0.01 mg/kg): 58.1 ± 6.0 cmH2O
leak point pressure before drug administration ([1]; dose group 0.03 mg/kg): 61.3 ± 3.3 cmH2O
leak point pressure before drug administration ([1]; dose group 0.1 mg/kg): 63.3 ± 3.8 cmH2O
leak point pressure before drug administration ([1]; dose group 0.3 mg/kg): 64.5 ± 3.5 cmH2O
leak point pressure before drug administration ([1]; dose group 1 mg/kg): 61.1 ± 3.4 cmH2O
effect on leak point pressure [1]: increased the leak point pressure
leak point pressure after drug administration ([2]; 0.001 mg/kg): 38.2 ± 3.7 cmH2O
leak point pressure after drug administration ([2]; 0.01 mg/kg): 42.8 ± 4.9 cmH2O
leak point pressure before drug administration ([2]; dose group 0.001 mg/kg): 36.5 ± 4.2 cmH2O
leak point pressure before drug administration ([2]; dose group 0.01 mg/kg): 37.0 ± 4.5 cmH2O
effect on leak point pressure [2]: increased the leak point pressure
urethral contractile responses before administration ([3]; increase in intravesical pressure to 25 cmH2O, dose group 10 mg/kg i.v.): 8.5 ± 0.5 cmH2O
urethral contractile responses before administration ([3]; increase in intravesical pressure to 50 cmH2O, dose group 10 mg/kg i.v.): 13.4 ± 2.1 cmH2O
urethral contractile responses after administration ([3]; increase in intravesical pressure to 25 cmH2O, 10 mg/kg i.v.): 11.4 ± 0.6 cmH2O
urethral contractile responses after administration ([3]; increase in intravesical pressure to 50 cmH2O, 10 mg/kg i.v.): 17.8 ± 2.2 cmH2O
effect on urethral contractile responses during elevation of intravesical pressure [3]: enhanced the urethral contractile responses
